Test results as given in the NIST ThermoML archive (doi:10.1016/j.tca.2011.02.027).

Assay: molar heat capacity at constant pressure; xn = mol fraction of the nth substance listed
Details: 101.3 kPa, Liquid, Large sample (1 g) DSC

CCCCn1cc[n+](C)c1.[Br-] [1-butyl-3-methylimidazolium bromide] + O
molar heat capacity at constant pressure [J/K/mol]
Details	x1 = 0.1	x1 = 0.2	x1 = 0.3	x1 = 0.4	x1 = 0.5	x1 = 0.6	x1 = 1
303.2 K	102.2	123.4	144.5	165	186.7	209.6	–
308.2 K	102.5	124.1	145.4	166.1	188	211.2	–
313.2 K	103	124.9	146.3	167.1	189.2	212.9	–
318.2 K	103.5	125.8	147.2	168.1	190.7	214.5	–
323.2 K	104	126.6	148.2	169.2	191.8	216.2	–
328.2 K	104.5	127.5	149.2	170.4	193.3	217.9	–
333.2 K	104.8	128.3	150.1	171.6	194.6	219.5	–
338.2 K	105.4	129.2	151.1	172.9	196.1	221.3	–
343.2 K	105.8	130	152.1	173.9	197.3	223.1	–
348.2 K	106.3	131.1	153.1	175.2	198.6	224.9	–
353.2 K	106.8	131.9	154.1	176.2	200	226.5	334.8
358.2 K	–	–	–	–	–	–	338.1
363.2 K	–	–	–	–	–	–	341.1
368.2 K	–	–	–	–	–	–	344.6
373.2 K	–	–	–	–	–	–	347.5
378.2 K	–	–	–	–	–	–	350.6
383.2 K	–	–	–	–	–	–	354.1
388.2 K	–	–	–	–	–	–	356.7
393.2 K	–	–	–	–	–	–	359.9
398.2 K	–	–	–	–	–	–	363.4
403.2 K	–	–	–	–	–	–	366.4
